Measurements as given in patent publication US5173403A, “Thermostable acid protease from sulfolobus acidocaldarius and gene” (Oklahoma Medical Research Foundation, priority 1990, dated 1992).
Several values for one entry are separate records, joined by “and”; a condition that tells them apart may be missing. Identical values can stand only once. Entries after “also recorded” stand apart in the source; their conditions may differ. Like-named read-outs stand apart in the source and are kept apart here. Numbered stars: 1 amine (or outer) side, 2 acyl side, 3 side chain; on linkers, the order of the positions; unused ones are H or OH. Square brackets hold non-standard residues; d marks the D form. Peptide text beside a SMILES is read from it. * marks the point of attachment. Sta = CC(C)C[C@H](N)[C@@H](O)CC(=O)O; Isovaleryl = CC(C)CC(=O)*; CO = O=C([*:1])[*:2]

Biological target: T1, thermopsin, thermostable acid protease purified from Sulfolobus acidocaldarius culture medium (Sulfolobus acidocaldarius, UniProt P17118)
T1 construct: There are 41 amino acids in front of the NH2 -terminal position of thermopsin including the initiation methionine; made in house; host or cells: native enzyme purified from Sulfolobus acidocaldarius culture medium (not recombinant)
T1 sequence (P17118 42-340): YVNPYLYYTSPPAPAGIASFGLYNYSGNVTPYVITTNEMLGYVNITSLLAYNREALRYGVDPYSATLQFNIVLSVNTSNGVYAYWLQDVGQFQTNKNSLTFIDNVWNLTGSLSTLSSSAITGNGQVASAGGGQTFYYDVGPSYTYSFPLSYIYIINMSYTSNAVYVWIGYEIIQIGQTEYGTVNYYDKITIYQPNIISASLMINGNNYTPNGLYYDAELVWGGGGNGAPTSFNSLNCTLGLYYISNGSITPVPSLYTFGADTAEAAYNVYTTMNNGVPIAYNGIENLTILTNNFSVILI
Assay: Effects of proteinase inhibitors on thermopsin (preincubation with inhibitor, then 14C-hemoglobin proteolytic assay)
Format: biochemical
Conditions: for remaining activity at 20 µM: 0.02 mM inhibitor in preincubation (pH 6.0, 37° C., 5 min); for remaining activity at 10 µM: 0.01 mM inhibitor in preincubation (pH 6.0, 37° C., 5 min)
Description: Proteolytic activity is routinely assayed using ^14 C-methylated bovine hemoglobin as substrate, as prepared according to the method of Lin, et al., J. Biol. Chem. 264,4482-4489 (1989). The assay mixture, containing 0.51% hemoglobin substrate and thermopsin in 0.1 ml of 0.1M sodium formate, pH 3.2, is placed in an Eppendorf tube. After incubation at 80° C. for a period of time between 5 to 30 min, depending on the level of activity of thermopsin used, an aliquot of 0.1 ml of 10% trichloracetic acid is added to stop the reaction and precipitate the protein. After removal of the precipitate by centrifugation, the radioactivity of an aliquot of the clear supernate is determined in a scintillation counter.
The effect of various protease inhibitors on the activity of thermopsin was tested.
Thermopsin is preincubated with the indicated level of inhibitor in 0.1 M
phosphate buffer, pH 6.0, containing 1 mM EDTA and DTT at 37° C.
for 5 min. Sodium formate (pH 3.2) and ^14 CHemoglobin is then added
to a concentration as described above. The enzyme assay is then carried
out at 80° C. for 15 min. Enzyme activity is expressed as percent

[1] = concentration not given, see Table II
[2] = assay pH 3.2, 80° C., 15 min, percent of control, read-out: Enzyme Activity (%)

## O=S(=O)(F)Cc1ccccc1 [PMSF, phenylmethylsulfonyl fluoride]
2 mM inhibitor in preincubation (pH 6.0, 37° C., 5 min), assay pH 3.2, 80° C., 15 min, percent of control
  Enzyme Activity (%): 28%
[1]
  effect of inhibitor on thermopsin activity (in words): significantly inactivate; also recorded: significant inhibition

## CC(C)[C@H](NC(=O)[C@H](CCCNC(=N)N)NC(=O)N[C@@H](Cc1ccccc1)C(=O)O)C(=O)N[C@H](C=O)CCCNC(=N)N [Antipain, antipain] ({Phe-CO}-Arg-Val-Arg-aldehyde)
[2]
  remaining activity at 20 µM: 25%
[1]
  effect of inhibitor on thermopsin activity (in words): inhibited; also recorded: significant inhibition

## CC(C)C[C@H](NC(=O)N[C@H](C(=O)N[C@@H](CCC(N)=O)C(=O)N[C@@H](C)C=O)[C@@H]1CCNC(=N)N1)C(=O)O [Elastatinal, elastatinal]
[2]
  remaining activity at 20 µM: 70%

## Cc1ccc(S(=O)(=O)N[C@@H](CCCCN)C(=O)CCl)cc1 [TLCK, N-p-Tosyl-1-lysine chloromethyl ketone]
[2]
  remaining activity at 10 µM: 78%
[1]
  effect of inhibitor on thermopsin activity (in words): much less effective

## O=C(O)CN(CCN(CC(=O)O)CC(=O)O)CC(=O)O [EDTA]
  effect of inhibitor on thermopsin activity (in words): little effect
read-out: Enzyme Activity (%)
  remaining activity at 1000 µM: 100%

## CCCCC(NC(=O)C=[N+]=[N-])C(=O)OC (racemic) [DAN, diazoacetyl-DL-norleucinemethlyester]
12 mM inhibitor in preincubation (pH 6.0, 37° C., 5 min), assay pH 3.2, 80° C., 15 min, percent of control, read-out: Enzyme Activity (%)
  remaining activity at 12000 µM: 100%
[1]
  effect of inhibitor on thermopsin activity (in words): not inactivated; also recorded: no effect

## CC(=O)N[C@@H](CC(C)C)C(=O)N[C@@H](CC(C)C)C(=O)N[C@H](C=O)CCCNC(=N)N [Leupeptin, leupeptin]
0.004 mM inhibitor in preincubation (pH 6.0, 37° C., 5 min), assay pH 3.2, 80° C., 15 min, percent of control, read-out: Enzyme Activity (%)
  remaining activity at 4 µM: 93%

## CC(C)CC(=O)N[C@H](C(=O)N[C@H](C(=O)N[C@@H](CC(C)C)[C@@H](O)CC(=O)N[C@@H](C)C(=O)N[C@@H](CC(C)C)[C@@H](O)CC(=O)O)C(C)C)C(C)C [Pepstatin, pepstatin] (Isovaleryl-VV[Sta]A[Sta]-OH)
0.5 μM inhibitor in preincubation (pH 6.0, 37° C., 5 min), assay pH 3.2, 80° C., 15 min, percent of control, read-out: Enzyme Activity (%)
  remaining activity at 0.5 µM: 50%
5 μM inhibitor in preincubation (pH 6.0, 37° C., 5 min), assay pH 3.2, 80° C., 15 min, percent of control, read-out: Enzyme Activity (%)
  remaining activity at 5 µM: 16%
[1]
  effect of inhibitor on thermopsin activity (in words): strongly inhibited
Thermopsin proteolytic activity, hemoglobin substrate, read-out: inhibitor concentration giving 50% inhibition of enzyme activity
  IC50: ~500 nM and 500 nM

## O=C(O)CI [Iodoacetic Acid, iodoacetic acid]
  effect of inhibitor on thermopsin activity (in words): little effect
read-out: Enzyme Activity (%)
  remaining activity at 100 µM: 74%

## CCN1C(=O)C=CC1=O [N-ethylmaleimide]
0.1 mM inhibitor in preincubation (pH 6.0, 37° C., 5 min), assay pH 3.2, 80° C., 15 min, percent of control, read-out: Enzyme Activity (%)
  remaining activity at 100 µM: 95%
[1]
  effect of inhibitor on thermopsin activity (in words): little effect

## Cc1ccc(S(=O)(=O)N[C@@H](Cc2ccccc2)C(=O)CCl)cc1 [TPCK, N-Tosyl-L-phenylalanine chloromethyl ketone]
[2]
  remaining activity at 10 µM: 14%
[1]
  effect of inhibitor on thermopsin activity (in words): significantly inactivate; also recorded: significant inhibition
